According to patent US10226448B2, “3-(1H-pyrrolo[3,2-C]pyridin-2-yl)-1H-pyrazolo[3,4-B]pyridines and therapeutic uses thereof” (Samumed, LLC, priority 2015, dated 2019):
Each block holds one molecule with its values, some of them ahead of it.

Key:
Type in all cases: cell-based
[1] = test system: IL-6 in THP-1 cells; experiment: IL-6 inhibition in LPS-stimulated THP-1 human monocyte cells (HTRF); details: for EC50: IL-6 inhibition, LPS-stimulated THP-1 cells, HTRF, 10-point dose-response starting from 10 μM; for inhibition at 10 µM: THP-1, read-out: percentage in parentheses beside EC50 >10
Procedure: Compound Screening: THP-1 cells were cultured in basal media with 1% FBS for 24 hours before the start of the assay. […] THP-1 cells were plated at 5000 cells/well in the 384-well plates and incubated at 37° C. for 2 h. 500 ng/mL of LPS was added after 2 hours and cells were incubated for another 22 hours at 37° C. Plates were spun in a centrifuge for 1 minute at […] and a mixture of anti-IL6 XL665, and anti-IL6 Cryptate diluted in reconstitution buffer (Cisbio Inc.) was added to each well. Following incubation for 3 hrs at room temperature, Homogeneous Time-Resolved Fluorescence (HTRF) was measured using the Envision (Perkin Elmer) at 665 nm and […]. The ratio of fluorescence at 665 nm to 620 nm was used as a readout for IL6 quantification. All samples were processed in duplicate. Readings were normalized to DMSO treated cells and normalized activities were utilized for EC50 calculations using the dose-response log (inhibitor) vs. response variable slope (four parameters) nonlinear regression feature available in GraphPad Prism 5.0 (or Dotmatics).

[2] = test system: SW480 colon cancer cells; experiment: Cell viability assay (CellTiter-Blue) in SW480 colon cancer cells; details: Homo sapiens; for EC50: 96 h, SW480 cell viability, four days, CellTiter-Blue
Procedure: Representative compounds were screened using the following assay procedure to assess the effect on cell viability as described below.
Approximately 2×10^3 SW480 colon cancer cells were seeded into each well and allowed to incubate in the presence or absence of compound for four days at 37° C./5% CO2. Eight replicates of DMSO-treated cells served as controls and cells treated with compound were performed in duplicate.
After incubation, 20 μL of CellTiter-Blue (Promega) was added to each well allowed to incubate for approximately 3 hours. This reagent was a buffered solution which contains resazurin, metabolically active cells were able to reduce rezarurin (blue) into resorufin (pink) which was highly fluorescent. This measured fluorescence was used as a readout for cell viability.

[3] = test system: LL29 cells (primary human fibroblasts derived from IPF patients), α-smooth muscle actin; experiment: Inhibition of the fibrotic process: αSMA staining in TGF-β1 treated primary human fibroblasts from IPF patients (LL29 cells); details: Fibroblast; for EC50: 96 h, LL29 cells, TGF-β1 20 ng/mL, 4 days, % αSMA positive cells; for inhibition at 10 µM: read-out: percent inhibition at 10 μM
Procedure: Representative compounds were screened using primary human fibroblasts (derived from IPF patients) treated with TGF-β1 to determine their ability to inhibit the fibrotic process.
LL29 cells are plated at 1,500 cells/well in 80 μL/well F12 medium supplemented with 1% Fetal Bovine Serum. […] Wells treated with TGF-β1 and containing DMSO were used as controls. […] Following incubation for 4 days, SYTOX green nucleic acid stain (Life Technologies [Thermo Fisher Scientific]) was added to the wells at a final concentration of 1 μM and incubated at room temperature for 30 min.

[4] = test system: primary human mesenchymal stem cells (hMSCs); experiment: Induction of chondrogenesis in primary human mesenchymal stem cells (chondrogenic nodules, Rhodamine B / Nile Red); details: 6 days; for EC50: concentration required to induce 50% levels of chondrogenesis vs TGF-β3, read-out: Conc (nM) of 50% TGF-β3 activity; for Emax: relative to TGF-β3 (10 ng/mL) positive control, read-out: Max. Activity as % TGF-β3 activity
Text: Representative compounds were screened using primary human mesenchymal stem cells (hMSCs) to determine their ability to induce chondrogenesis (process by which cartilage is developed).
Human Mesenchymal Stem Cell Culture: Primary human mesenchymal stem cells (hMSCs) were purchased from Lonza (Walkersville, Md.) and expanded in Mesenchymal Stem Cell Growth Media (Lonza). Cells between passage 3 and 6 were used for the experiments.
To image chondrogenic nodules, the cells were fixed using 4% formaldehyde (Electron Microscopy Sciences), and stained with 2 μg/mL Rhodamine B (Sigma-Aldrich) and 20 μM Nile Red (Sigma-Aldrich) [Johnson K., et. al, A Stem Cell-Based Approach to Cartilage Repair, Science, (2012). […] Number of nodules in each well was normalized to the average of 3 DMSO treated wells on the same plate using Excel (Microsoft Inc.). The normalized averages (fold change over DMSO) of 3 replicate wells for each compound concentration were calculated. Due to solubility limitations of some of the compounds, curve fitting was incomplete leading to inaccurate EC50 determinations.
Using TGF-β3 as a positive control, the concentration of representative compounds required to induce 50% levels of chondrogenesis is reported. In addition, the maximum activity of each compound and the respective dose that each compound reached maximum chondrogenesis activity is reported.

[5] = test system: Wnt activity (Sp5-Luc reporter, TCF/LEF binding sites) in SW480 colon carcinoma cells; experiment: Wnt activity screening assay: Sp5-Luc reporter gene assay in SW480 cells; details: Homo sapiens; for EC50: Sp5-Luc reporter, SW480 cells, overnight incubation
Text: The screening assay for Wnt activity is described as follows. Reporter cell lines can be generated by stably transducing cancer cell lines (e.g., colon cancer) or primary cells (e.g., IEC-6 intestinal cells) with a lentiviral construct that includes a Wnt-responsive promoter driving expression of the firefly luciferase gene.
SW480 colon carcinoma cells were transduced with a lentiviral vector expressing luciferase with a human Sp5 promoter consisting of a sequence of eight TCF/LEF binding sites. SW480 cells stably expressing the Sp5-Luc reporter gene and a hygromycin resistance gene were selected by treatment with 150 μg/mL of hygromycin for 7 days. These stably transduced SW480 cells were expanded in cell culture and used for all further screening activities. […] For Sp5-Luc reporter gene assays, the cells were plated at 4,000 cells/well in 384-well plates with medium containing 1% fetal bovine serum and incubated overnight at 37° C. and 5% CO2. Following incubation, 20 μl of BrightGlo luminescence reagent (Promega) was added to each well of the 384-well assay plates. The plates were placed on an orbital shaker for 2 min and then luminescence was quantified using the Envision (Perkin Elmer) plate reader. Readings were normalized to DMSO only treated cells, and normalized activities were utilized for EC50 calculations using the dose-response log (inhibitor) vs. response variable slope (four parameters) nonlinear regression feature available in GraphPad Prism 5.0 (or Dotmatics).

[6] = SW480, read-out: percent inhibition at 10 μM

SMILES: O=C(Nc1cncc(-c2cnc3[nH]nc(-c4cc5c(-c6ccc(F)cc6)nccc5[nH]4)c3c2)c1)C1CCC1 [Compound 49, N-(5-(3-(4-(4-Fluorophenyl)-1H-pyrrolo[3,2-c]pyridin-2-yl)-1H-pyrazolo[3,4-b]pyridin-5-yl)pyridin-3-yl)cyclobutanecarboxamide]
EC50 [1]: 1480 nM
EC50 [2]: 595 nM
EC50 [3]: 360 nM
EC50 [4]: 10 nM
Emax [4]: 208%
EC50 [5]: 1170 nM

SMILES: Fc1ccc(-c2nccc3[nH]c(-c4n[nH]c5ncc(-c6cncc(CNCc7ccccc7)c6)cc45)cc23)cc1 [Compound 52, N-Benzyl-1-(5-(3-(4-(4-fluorophenyl)-1H-pyrrolo[3,2-c]pyridin-2-yl)-1H-pyrazolo[3,4-b]pyridin-5-yl)pyridin-3-yl)methanamine]
EC50 [1]: 1260 nM
EC50 [2]: 346 nM
EC50 [3]: 458 nM
EC50 [4]: 900 nM
Emax [4]: 179%
EC50 [5]: 854 nM

SMILES: CCNCc1cncc(-c2cnc3[nH]nc(-c4cc5c(-c6ccccc6F)nccc5[nH]4)c3c2)c1 [Compound 62, N-((5-(3-(4-(2-Fluorophenyl)-1H-pyrrolo[3,2-c]pyridin-2-yl)-1H-pyrazolo[3,4-b]pyridin-5-yl)pyridin-3-yl)methyl)ethanamine]
EC50 [1]: 1890 nM
EC50 [2]: 923 nM
EC50 [3]: 2370 nM
Emax [4]: 52%
EC50 [5]: 1080 nM

SMILES: O=C(Nc1cncc(-c2cnc3[nH]nc(-c4cc5c(-c6ccccc6F)nccc5[nH]4)c3c2)c1)c1ccccc1 [Compound 67, N-(5-(3-(4-(2-Fluorophenyl)-1H-pyrrolo[3,2-c]pyridin-2-yl)-1H-pyrazolo[3,4-b]pyridin-5-yl)pyridin-3-yl)benzamide]
EC50 [1]: > 10000 nM
inhibition at 10 µM [1]: 41.4%
EC50 [2]: 1620 nM
EC50 [3]: > 10000 nM
inhibition at 10 µM [3]: 6.3%
EC50 [4]: 10 nM
Emax [4]: 101%
EC50 [5]: 1980 nM

SMILES: CC(C)Nc1cncc(-c2cnc3[nH]nc(-c4cc5c(-c6ccccc6F)nccc5[nH]4)c3c2)c1 [Compound 68, 5-(3-(4-(2-Fluorophenyl)-1H-pyrrolo[3,2-c]pyridin-2-yl)-1H-pyrazolo[3,4-b]pyridin-5-yl)-N-isopropylpyridin-3-amine]
EC50 [1]: 235 nM
EC50 [2]: 959 nM
EC50 [3]: 1890 nM
EC50 [4]: 10 nM
Emax [4]: 76%
EC50 [5]: 435 nM

SMILES: CCCC(=O)Nc1cncc(-c2cnc3[nH]nc(-c4cc5c(-c6ccccc6F)nccc5[nH]4)c3c2)c1 [Compound 73, N-(5-(3-(4-(2-Fluorophenyl)-1H-pyrrolo[3,2-c]pyridin-2-yl)-1H-pyrazolo[3,4-b]pyridin-5-yl)pyridin-3-yl)butyramide]
EC50 [1]: 36 nM
EC50 [2]: 348 nM
EC50 [3]: 2660 nM
Emax [4]: 53%
EC50 [5]: 472 nM

The next lines start with results.

EC50 [1]: 198 nM
EC50 [2]: 762 nM
EC50 [4]: 30 nM
EC50 [5]: 197 nM
SMILES: Nc1cncc(-c2cnc3[nH]nc(-c4cc5c(-c6ccccc6F)nccc5[nH]4)c3c2)c1 [Compound 59, 5-(3-(4-(2-Fluorophenyl)-1H-pyrrolo[3,2-c]pyridin-2-yl)-1H-pyrazolo[3,4-b]pyridin-5-yl)pyridin-3-amine]
EC50 [3]: 2280 nM
Emax [4]: 86%

EC50 [1]: 53 nM
EC50 [2]: 450 nM
EC50 [4]: 30 nM
EC50 [5]: 321 nM
SMILES: O=C(Nc1cncc(-c2cnc3[nH]nc(-c4cc5c(-c6ccccc6F)nccc5[nH]4)c3c2)c1)C1CC1 [Compound 76, N-(5-(3-(4-(2-Fluorophenyl)-1H-pyrrolo[3,2-c]pyridin-2-yl)-1H-pyrazolo[3,4-b]pyridin-5-yl)pyridin-3-yl)cyclopropanecarboxamide]
EC50 [3]: 2700 nM
Emax [4]: 78%

EC50 [1]: 505 nM
EC50 [2]: 651 nM
EC50 [5]: 960 nM
SMILES: O=C(Nc1cncc(-c2cnc3[nH]nc(-c4cc5c(-c6ccccc6F)nccc5[nH]4)c3c2)c1)C1CCCC1 [Compound 78, N-(5-(3-(4-(2-Fluorophenyl)-1H-pyrrolo[3,2-c]pyridin-2-yl)-1H-pyrazolo[3,4-b]pyridin-5-yl)pyridin-3-yl)cyclopentanecarboxamide]
EC50 [3]: > 10000 nM
inhibition at 10 µM [3]: 12.7%
Emax [4]: 51%

EC50 [1]: > 10000 nM
EC50 [2]: 2080 nM
EC50 [5]: 4060 nM
SMILES: Fc1ccccc1-c1nccc2[nH]c(-c3n[nH]c4ncc(-c5cncnc5)cc34)cc12 [Compound 83, 3-(4-(2-Fluorophenyl)-1H-pyrrolo[3,2-c]pyridin-2-yl)-5-(pyrimidin-5-yl)-1H-pyrazolo[3,4-b]pyridine]
inhibition at 10 µM [1]: 28.3%
EC50 [3]: 1210 nM
Emax [4]: 36%

EC50 [1]: > 10000 nM
EC50 [2]: > 10000 nM
EC50 [4]: 30 nM
EC50 [5]: > 10000 nM
SMILES: Nc1cncc(-c2cnc3[nH]nc(-c4cc5c(-c6ccncc6)nccc5[nH]4)c3c2)c1 [Compound 115, 5-(3-(4-(Pyridin-4-yl)-1H-pyrrolo[3,2-c]pyridin-2-yl)-1H-pyrazolo[3,4-b]pyridin-5-yl)pyridin-3-amine]
inhibition at 10 µM [1]: 9.7%
inhibition at 10 µM [2, 6]: 10.1%
EC50 [3]: > 10000 nM
inhibition at 10 µM [3]: 53.8%
Emax [4]: 53%
inhibition at 10 µM [5, 6]: 9.3%

EC50 [1]: 484 nM
EC50 [2]: 1160 nM
EC50 [4]: 900 nM
EC50 [5]: 4020 nM
SMILES: c1cncc(-c2cnc3[nH]nc(-c4cc5c(N6CCCCC6)nccc5[nH]4)c3c2)c1 [Compound 172, 3-(4-(Piperidin-1-yl)-1H-pyrrolo[3,2-c]pyridin-2-yl)-5-(pyridin-3-yl)-1H-pyrazolo[3,4-b]pyridine]
EC50 [3]: 1330 nM
Emax [4]: 169%

EC50 [1]: 2130 nM
EC50 [2]: 3700 nM
EC50 [5]: 3410 nM
SMILES: CC(C)Nc1cncc(-c2cnc3[nH]nc(-c4cc5c(N6CCCCC6)nccc5[nH]4)c3c2)c1 [Compound 180, N-Isopropyl-5-(3-(4-(piperidin-1-yl)-1H-pyrrolo[3,2-c]pyridin-2-yl)-1H-pyrazolo[3,4-b]pyridin-5-yl)pyridin-3-amine]
EC50 [3]: 247 nM
Emax [4]: 34%
